Source: US20070244110A1, “Treatment of prostate cancer, melanoma or hepatic cancer” (ZENYAKU KOGYO KABUSHIKI KAISHA, priority 2006, published 2007)

Legend:
[1] = test system: PC-3 prostate cancer cells; test: In vitro anti-tumor experiment, growth inhibition of PC-3 cells; type: cell-based; details: PC-3, 72 hours incubation
Method: (§1) Hepatoma HepG2 cells were cultured in a MEM culture medium (containing 10% fetal bovine serum, 25 mM HEPES and 0.1 mg/ml kanamycin) under conditions of 5% carbon dioxide at 37° C. HepG2 cells were harvested as single free cells by a tripsin/EDTA treatment in the logarithmic growth phase, and a cell suspension solution consisted of 2×10^4 cells per ml was prepared with MEM culture medium (containing 10% fetal bovine serum, 25 mM HEPES and 0.1 mg/ml kanamycin). The test compound was dissolved in DMSO, then diluted with RPMI1640 culture medium (containing 10% fetal bovine serum, 25 mM HEPES, 0.1 mg/ml kanamycin), and adjusted to a concentration of 2.0×10^−9 to 2.0×10^−3 M.
(§2) 0.1 ml of the cell suspension solution was put in each well of a 96-well plate, then cultured for 24 hours to make the cells adhere to the microplates, and 0.1 ml of the test compound was added in each well and incubated for 72 hours under conditions of 5% carbon dioxide at 37° C. The 50% growth inhibition concentration (GI50 value μM) was computed from the growth inhibition rates at various test sample concentrations, and the results are shown in Table 1.
(§3) When using cells other than HepG2 cells, the following culture media were used instead of the MEM culture medium, and the following single cell suspensions were prepared with the following media:
PC-3 prostate cancer cells:
F12K culture medium containing 10% fetal bovine serum, 2×10^4 cell suspension

Hepatoma HepG2 cells = test: In vitro anti-tumor experiment, growth inhibition of HepG2 cells; type: cell-based; details: HepG2, 72 hours incubation
Method: as §1, §2

B16F10 melanoma cells = test: In vitro anti-tumor experiment, growth inhibition of B16F10 cells; type: cell-based; details: B16F10, 72 hours incubation
Method: as §1, §2, §3
RPMI1640 culture medium containing 10% fetal bovine serum, 1×10^4 cell suspension

[2] = test system: PC-3 prostate cancer cells; test: In vivo anti-tumor experiment, PC-3 human tumor xenograft; parameters: species or system BALB/c nude mice; details: 6 days a week for two weeks, day 14
Method: (§4) Human tumor xenografts were generated with PC-3 prostate cancer cells, and WiDr colon cancer cells, and were grown as subcutaneous tumors in mutant BALB/c nude mice. Each nude mouse was subcutaneously inoculated with a tumor fragment of 2 mm by 2 mm by 2 mm. When tumors reached a volume of 100-300 mm^3, animals were divided randomly into test groups of five mice (day 0). The samples were orally administered at a dosage of 100, 200 or 400 mg/kg once daily, 6 days a week for two weeks. The length (L) and width (W) of the subcutaneous tumor mass were measured by calipers in live mice, and the tumor volume (TV) was calculated as: TV=(L×W^2)/2. The tumor volume at day n was expressed as relative tumor volume (RTV), according to the formula RTV=TVn/TV0, where TVn is the tumor volume at day n, and TV0 is the tumor volume at day 0. T/C% on day 14 was determined by calculating RTV as: T/C%=100×(mean RTV of treated group)/(mean RTV of control group). The specimens in which T/C (%) was 50% or less and having a significant difference at P value 1% on one side in a Mann-Whitney U test were evaluated as effective (+).

WiDr colon cancer cells = test: In vivo anti-tumor experiment, WiDr human tumor xenograft (reference); parameters: species or system BALB/c nude mice; details: 6 days a week for two weeks, day 14
Method: as §4

Compound	GI50 ([1]; Homo sapiens)	melting point	GI50 (Hepatoma HepG2 cells; Homo sapiens)	GI50 (B16F10 melanoma cells; Mus musculus, B16-F10)	Evaluation effective (+), Prostate Cancer ([2]; 200 mg/kg orally once daily)	T/C (%) Prostate Cancer ([2]; 200 mg/kg orally once daily)	T/C (%) Colon Cancer (reference) (WiDr colon cancer cells; 200 mg/kg orally once daily)	other results
C[C@@H]1CO[C@@H](C)CN1c1nc(N2CCOCC2)nc(-n2c(C(F)F)nc3ccccc32)n1 (relative stereo) [Compound 3, 2-(2-difluoromethylbenzimidazol-1-yl)-4-(trans-2,5-dimethylmorpholino)-6-morpholino-1,3,5-triazine]	0.49 µM	166 to 169 °C	1.12 µM	1.14 µM				
FC(F)c1nc2ccccc2n1-c1nc(N2CCOCC2)nc(N2CCOCC2)n1 [Compound 1, 2-(2-difluoromethylbenzimidazol-1-yl)-4,6-dimorpholino-1,3,5-triazine]	0.24 µM		1.15 µM	0.31 µM				Evaluation effective (+), Prostate Cancer ([2]; 400 mg/kg orally once daily): + (T/C (%) was 50% or less and having a significant difference at P value 1% on one side in a Mann-Whitney U test were evaluated as effective (+)); T/C (%) Prostate Cancer ([2]; 400 mg/kg orally once daily): 24.8%; Evaluation effective (+), Colon Cancer (reference) (WiDr colon cancer cells; 400 mg/kg orally once daily): + (T/C (%) was 50% or less and having a significant difference at P value 1% on one side in a Mann-Whitney U test were evaluated as effective (+)); T/C (%) Colon Cancer (reference) (WiDr colon cancer cells; 400 mg/kg orally once daily): 33.2%
CC1(C)CN(c2nc(N3CCOCC3)nc(-n3c(C(F)F)nc4ccccc43)n2)CCO1 [Compound 2, 2-(2-difluoromethylbenzimidazol-1-yl)-4-(2,2-dimethylmorpholino)-6-morpholino-1,3,5-triazine]	0.74 µM	176 to 178 °C	1.5 µM	0.95 µM				
COc1cccc2c1nc(C(F)F)n2-c1nc(N2CCOCC2)nc(N2CCOCC2)n1 [Compound 4, 2-(2-difluoromethyl-4-methoxybenzimidazol-1-yl)-4,6-dimorpholino-1,3,5-triazine]	0.19 µM		0.34 µM	0.25 µM				
COc1cccc2c1nc(C(F)F)n2-c1nc(N2CCOCC2)cc(N2CCOC(C)(C)C2)n1 [Compound 5, 2-(2-difluoromethyl-4-methoxybenzimidazol-1-yl)-4-(2,2-dimethylmorpholino)-6-morpholinopyrimidine]		160 to 162 °C			+ (T/C (%) was 50% or less and having a significant difference at P value 1% on one side in a Mann-Whitney U test were evaluated as effective (+))	39.1%		Evaluation effective (+), Colon Cancer (reference) (WiDr colon cancer cells; 100 mg/kg orally once daily): + (T/C (%) was 50% or less and having a significant difference at P value 1% on one side in a Mann-Whitney U test were evaluated as effective (+))
COc1cccc2c1nc(C(F)F)n2-c1nc(N2CCOCC2)cc(N2C[C@@H](C)O[C@@H](C)C2)n1 [Compound 6, 2-(2-difluoromethyl-4-methoxybenzimidazol-1-yl)-4-(cis-2,6-dimethylmorpholino)-6-moropholinopyrimidine]					+ (T/C (%) was 50% or less and having a significant difference at P value 1% on one side in a Mann-Whitney U test were evaluated as effective (+))	16.2%	29.5%	GI50 [1]: 0.54 µM; Evaluation effective (+), Prostate Cancer ([2]; 100 mg/kg orally once daily): + (T/C (%) was 50% or less and having a significant difference at P value 1% on one side in a Mann-Whitney U test were evaluated as effective (+)); T/C (%) Prostate Cancer ([2]; 100 mg/kg orally once daily): 32.3%; GI50 (Hepatoma HepG2 cells): 0.89 µM; Evaluation effective (+), Colon Cancer (reference) (WiDr colon cancer cells; 100 mg/kg orally once daily): + (T/C (%) was 50% or less and having a significant difference at P value 1% on one side in a Mann-Whitney U test were evaluated as effective (+)); T/C (%) Colon Cancer (reference) (WiDr colon cancer cells; 100 mg/kg orally once daily): 24.8%; Evaluation effective (+), Colon Cancer (reference) (WiDr colon cancer cells; 200 mg/kg orally once daily): + (T/C (%) was 50% or less and having a significant difference at P value 1% on one side in a Mann-Whitney U test were evaluated as effective (+)); GI50 (B16F10 melanoma cells): 1.21 µM
Oc1cccc2c1nc(C(F)F)n2-c1nc(N2CCOCC2)nc(N2CCOCC2)n1 [Compound 8, 2-(2-difluoromethyl-4-hydroxybenzimidazol-1-yl)-4,6-dimorpholino-1,3,5-triazine]	0.01 µM		0.12 µM	0.018 µM				
OCC1CCCN1c1nc(N2CCOCC2)nc(-n2c(C(F)F)nc3c(O)cccc32)n1 (stereo not shown) [Compound 9, 2-(2-difluoromethyl-4-hydroxybenzimidazol-1-yl)-4-(2-hydroxymethylpyrrolidin-1-yl)-6-morpholino-1,3,5-triazine]	0.02 µM		0.15 µM	0.063 µM	+ (T/C (%) was 50% or less and having a significant difference at P value 1% on one side in a Mann-Whitney U test were evaluated as effective (+))	31.8%	49.6%	Evaluation effective (+), Colon Cancer (reference) (WiDr colon cancer cells; 200 mg/kg orally once daily): + (T/C (%) was 50% or less and having a significant difference at P value 1% on one side in a Mann-Whitney U test were evaluated as effective (+))
CC1(C)COCCN1c1cc(N2CCOCC2)nc(-n2c(C(F)F)nc3c(O)cccc32)n1 [Compound 10, 2-(2-difluoromethyl-4-hydroxybenzimidazol-1-yl)-4-(3,3-dimethylmoropholino)-6-morpholinopyrimidine]					+ (T/C (%) was 50% or less and having a significant difference at P value 1% on one side in a Mann-Whitney U test were evaluated as effective (+))	38.1%	46.2%	GI50 [1]: 0.02 µM; Evaluation effective (+), Prostate Cancer ([2]; 400 mg/kg orally once daily): + (T/C (%) was 50% or less and having a significant difference at P value 1% on one side in a Mann-Whitney U test were evaluated as effective (+)); T/C (%) Prostate Cancer ([2]; 400 mg/kg orally once daily): 20.8%; GI50 (Hepatoma HepG2 cells): 0.09 µM; Evaluation effective (+), Colon Cancer (reference) (WiDr colon cancer cells; 200 mg/kg orally once daily): + (T/C (%) was 50% or less and having a significant difference at P value 1% on one side in a Mann-Whitney U test were evaluated as effective (+)); T/C (%) Colon Cancer (reference) (WiDr colon cancer cells; 400 mg/kg orally once daily): 63.1%; GI50 (B16F10 melanoma cells): 0.042 µM
C[C@@H]1CN(c2nc(N3CCOCC3)nc(-n3c(C(F)F)nc4c(O)cccc43)n2)C[C@H](C)O1 [Compound 11, 2-(2-difluoromethyl-4-hydroxybenzimidazol-1-yl)-4-(cis-2,6-dimethylmorpholino)-6-morpholino-1,3,5-triazine]		214 to 215 °C				66.5%	85.4%	Evaluation effective (+), Prostate Cancer ([2]; 400 mg/kg orally once daily): + (T/C (%) was 50% or less and having a significant difference at P value 1% on one side in a Mann-Whitney U test were evaluated as effective (+)); T/C (%) Prostate Cancer ([2]; 400 mg/kg orally once daily): 44.3%; T/C (%) Colon Cancer (reference) (WiDr colon cancer cells; 400 mg/kg orally once daily): 83.5%
CC(=O)Oc1cccc2c1nc(C(F)F)n2-c1nc(N2CCOCC2)cc(N2C[C@@H](C)O[C@@H](C)C2)n1 [Compound 13, 2-(2-difluoromethyl-4-acetoxybenzimidazol-1-yl)-4-(cis-2,6-dimethylmoropholino)-6-morpholinopyrimidine]						65.4%		
COC(=O)Oc1cccc2c1nc(C(F)F)n2-c1nc(N2CCOCC2)cc(N2CCOC(C)(C)C2)n1 [Compound 14, 2-(2-difluoromethyl-4-methoxycarbonyloxybenzimidazol-1-yl)-4-(2,2-dimethyl-moropholino)-6-morpholinopyrimidine]					+ (T/C (%) was 50% or less and having a significant difference at P value 1% on one side in a Mann-Whitney U test were evaluated as effective (+))	47.3%		
CCOC(=O)Oc1cccc2c1nc(C(F)F)n2-c1nc(N2CCOCC2)cc(N2C[C@@H](C)O[C@@H](C)C2)n1 [Compound 15, 2-(4-ethoxycarbonyloxy-2-difluoromethylbenzimidazol-1-yl)-4-(cis-2,6-dimethyl-moropholino)-6-morpholinopyrimidine]					+ (T/C (%) was 50% or less and having a significant difference at P value 1% on one side in a Mann-Whitney U test were evaluated as effective (+))	47.5%		
